Experimental data as given in patent publication US8410085B2, “Phospholipid compositions and uses thereof” (Baylor College of Medicine, priority 2007, dated 2013).
pEC50: −log10 of the molar value. Several values for one entry are separate records, joined by “and”; a condition that tells them apart may be missing. Equal values may be shown once. Entries after “also recorded” stand apart in the source; their conditions may differ.

Experiments:
GST-hLRH-1 LBD / SRC-3 = GST-hLRH-1 LBD / SRC-3 (Homo sapiens, UniProt O00482); experiment: GST pulldown, GST-hLRH-1 LBD with in vitro translated 35S-labeled SRC-3
human CAR = human CAR (Homo sapiens, UniProt Q14994); experiment: nuclear receptor cotransfection (RE-tk-luc), HeLa cells; details: 100 μM
LRH-1 [1] = target: T1, LRH-1 (Homo sapiens, UniProt O00482); experiment: Oct4 proximal promoter (Oct4-PP Luc) activation by hLRH-1 in COS-1 cells
LRH-1 [2] = target: T1, LRH-1; experiment: human LRH-1 transactivation, HeLa cotransfection with LRH-1/SF-1 response element luciferase reporter; assay type: cell-based; design: expressed in transfected cells; host or cells: HeLa (A1, A3); details: HeLa cells
Protocol: Controls (vector only and no lipid) are as indicated. […] Cells were treated with 100 μM of the indicated PCs and luciferase expression (RLU, relative light units) was normalized using an internal β-galactosidase control. vec, empty vector; −, ethanol solvent control.
HeLa cells were transfected with an hLRH-1 expression vector along with mSHP1080-Luc reporter. […] Oct4-PPmut Luc is identical to Oct4-PP Luc except for the insertion of point mutations in the DR0 element. […] HeLa cells were cotransfected with various nuclear receptors and the reporter plasmid (RE-tk-luc). […] Data are expressed for each reporter as fold activation of normalized luciferase activity relative to veh-treated cells.
A number of different phosphatidylcholine (PC) species were screened for effects on human LRH-1 transactivation in HeLa cell cotransfections with a synthetic luciferase reporter containing multiple copies of an LRH-1/SF-1 response element.

RXRα = RXRα (Homo sapiens, UniProt P19793); experiment: nuclear receptor cotransfection (RE-tk-luc), HeLa cells; details: 100 μM
PPARα = PPARα (Homo sapiens, UniProt Q07869); experiment: as above; details: 100 μM
TRβ = TRβ (Homo sapiens, UniProt P10828); experiment: as above; details: 100 μM
LXRα = LXRα (Homo sapiens, UniProt Q13133); experiment: as above; details: 100 μM
FXR = FXR (Homo sapiens, UniProt Q96RI1); experiment: as above; details: 100 μM
LRH-1 [3] = target: T1, LRH-1; experiment: mouse SHP promoter (mSHP1080-Luc) activation by hLRH-1 in HeLa cells; details: 100 μM
[4] = target: hLRH-1 LBD / SRC-3 receptor interaction domain (Homo sapiens, UniProt O00482); experiment: mammalian two-hybrid assay, VP16-hLRH1 LBD with Gal4-SRC3 RID in HeLa cells
LRH-1 [5] = target: T1, LRH-1; details: CV-1 and HEK293T cells, compared with HeLa
wild type male mice = experiment: bile acids, serum glucose and NEFA in wild type mice after oral gavage; assay type: in vivo, mouse; details: 100 mg/kg oral
mouse LRH-1 = mouse LRH-1 (Mus musculus, UniProt P45448); experiment: mouse LRH-1 transactivation, reporter cotransfection
LRH-1 [6] = experiment: hepatic gene expression in LRH-1 f/f mice infected with Ad-Cre; assay type: in vivo, mouse; details: 100 mg/kg oral, 100 mg/kg
Text: (§1) Total liver RNA was isolated and prepared for the cDNA. […] Total liver RNA was isolated and prepared for cDNA.

ERα = ERα (Homo sapiens, UniProt P03372); experiment: nuclear receptor cotransfection (RE-tk-luc), HeLa cells; details: 100 μM
human PXR = human PXR (Homo sapiens, UniProt O75469); experiment: as above; details: 100 μM
mouse CAR = mouse CAR (Mus musculus, UniProt O35627); experiment: as above; details: 100 μM
PPARδ = PPARδ (Homo sapiens, UniProt Q03181); experiment: as above; details: 100 μM
SF-1 = SF-1 (Homo sapiens, UniProt Q13285); experiment: SF-1 transactivation, reporter cotransfection in HeLa cells; details: 100 μM
RARβ = RARβ (Homo sapiens, UniProt P10826); experiment: nuclear receptor cotransfection (RE-tk-luc), HeLa cells; details: 100 μM
LRH-1 target Cyp8B1 = experiment: hCYP8B1 expression by Q-PCR in C3A HepG2 cells
LRH-1 [7] = target: T1, LRH-1; experiment: LRH-1 Luc reporter in C3A HepG2 cells (endogenous hLRH-1); details: C3A/HepG2 cells or cells with non-target control siRNAs
[8] = test system: hepatic expression of Cyp7A1, Cyp8B1, mSR-BI, SHP; experiment: hepatic gene expression (Q-PCR) in wild type mice after oral gavage; assay type: in vivo, mouse; details: 100 mg/kg oral, five times over three days
Text: as §1

PPARγ = PPARγ (Homo sapiens, UniProt P37231); experiment: nuclear receptor cotransfection (RE-tk-luc), HeLa cells; details: 100 μM

T1 sequence (O00482 whole entry): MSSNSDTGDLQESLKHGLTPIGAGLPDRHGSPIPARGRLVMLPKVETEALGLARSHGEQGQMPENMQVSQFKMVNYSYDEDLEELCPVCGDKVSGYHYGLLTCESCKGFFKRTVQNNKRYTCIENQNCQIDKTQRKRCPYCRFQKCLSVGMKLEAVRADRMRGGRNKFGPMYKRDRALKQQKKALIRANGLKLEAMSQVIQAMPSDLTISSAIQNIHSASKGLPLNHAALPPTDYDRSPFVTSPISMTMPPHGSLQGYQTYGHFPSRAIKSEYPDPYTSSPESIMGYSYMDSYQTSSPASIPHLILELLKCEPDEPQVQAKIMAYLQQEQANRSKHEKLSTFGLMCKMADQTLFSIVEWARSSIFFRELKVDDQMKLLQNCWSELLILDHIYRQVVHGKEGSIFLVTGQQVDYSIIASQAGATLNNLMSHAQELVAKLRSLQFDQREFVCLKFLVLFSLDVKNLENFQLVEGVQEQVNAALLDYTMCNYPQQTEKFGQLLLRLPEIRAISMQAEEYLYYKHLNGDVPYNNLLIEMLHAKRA
GST-hLRH-1 LBD / SRC-3, sequence (O00482 300-539 limits assumed): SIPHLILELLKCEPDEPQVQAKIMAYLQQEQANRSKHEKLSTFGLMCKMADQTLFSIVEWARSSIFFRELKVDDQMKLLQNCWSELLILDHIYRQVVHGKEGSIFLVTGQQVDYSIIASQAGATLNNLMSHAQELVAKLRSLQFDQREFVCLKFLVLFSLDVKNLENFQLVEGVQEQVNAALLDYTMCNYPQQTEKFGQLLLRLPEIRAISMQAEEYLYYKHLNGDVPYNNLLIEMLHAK
GST-hLRH-1 LBD / SRC-3, sequence (Q9Y6Q9 whole entry partner, the tested form may be a part): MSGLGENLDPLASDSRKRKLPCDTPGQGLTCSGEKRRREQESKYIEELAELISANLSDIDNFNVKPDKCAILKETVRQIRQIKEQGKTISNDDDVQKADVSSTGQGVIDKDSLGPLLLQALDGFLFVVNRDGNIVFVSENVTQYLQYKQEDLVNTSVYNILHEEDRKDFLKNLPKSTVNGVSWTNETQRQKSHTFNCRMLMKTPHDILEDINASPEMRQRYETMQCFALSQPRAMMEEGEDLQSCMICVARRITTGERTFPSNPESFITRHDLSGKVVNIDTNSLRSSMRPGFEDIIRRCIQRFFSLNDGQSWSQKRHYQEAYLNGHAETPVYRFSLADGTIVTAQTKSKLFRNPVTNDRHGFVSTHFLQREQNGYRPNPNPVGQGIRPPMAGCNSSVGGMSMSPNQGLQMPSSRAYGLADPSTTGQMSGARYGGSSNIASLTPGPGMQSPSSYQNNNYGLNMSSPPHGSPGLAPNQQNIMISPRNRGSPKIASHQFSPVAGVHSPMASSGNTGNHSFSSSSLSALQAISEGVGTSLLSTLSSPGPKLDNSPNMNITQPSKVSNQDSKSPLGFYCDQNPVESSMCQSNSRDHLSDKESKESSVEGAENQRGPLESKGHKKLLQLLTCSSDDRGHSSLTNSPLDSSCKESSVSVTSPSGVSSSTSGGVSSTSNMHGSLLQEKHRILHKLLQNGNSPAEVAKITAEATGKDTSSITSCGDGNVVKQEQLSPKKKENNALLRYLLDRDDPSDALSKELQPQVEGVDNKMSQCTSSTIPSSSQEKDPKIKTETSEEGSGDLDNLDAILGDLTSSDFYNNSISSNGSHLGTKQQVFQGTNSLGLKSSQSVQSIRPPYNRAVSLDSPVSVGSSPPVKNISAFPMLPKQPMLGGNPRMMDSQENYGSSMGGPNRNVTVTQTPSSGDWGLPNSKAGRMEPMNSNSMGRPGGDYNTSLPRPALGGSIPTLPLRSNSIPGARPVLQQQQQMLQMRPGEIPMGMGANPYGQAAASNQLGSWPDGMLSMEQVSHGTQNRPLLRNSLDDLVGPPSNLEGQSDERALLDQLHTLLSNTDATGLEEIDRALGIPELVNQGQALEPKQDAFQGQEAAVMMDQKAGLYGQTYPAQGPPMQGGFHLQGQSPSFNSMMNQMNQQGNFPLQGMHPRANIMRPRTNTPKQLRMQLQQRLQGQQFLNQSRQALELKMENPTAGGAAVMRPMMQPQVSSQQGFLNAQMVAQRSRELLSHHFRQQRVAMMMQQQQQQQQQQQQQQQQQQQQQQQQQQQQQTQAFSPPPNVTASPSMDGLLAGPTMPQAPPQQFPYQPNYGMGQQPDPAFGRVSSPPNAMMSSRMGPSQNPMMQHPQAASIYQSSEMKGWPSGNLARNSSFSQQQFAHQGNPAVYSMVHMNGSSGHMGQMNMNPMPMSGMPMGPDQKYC
RXRα, sequence (P19793 whole entry): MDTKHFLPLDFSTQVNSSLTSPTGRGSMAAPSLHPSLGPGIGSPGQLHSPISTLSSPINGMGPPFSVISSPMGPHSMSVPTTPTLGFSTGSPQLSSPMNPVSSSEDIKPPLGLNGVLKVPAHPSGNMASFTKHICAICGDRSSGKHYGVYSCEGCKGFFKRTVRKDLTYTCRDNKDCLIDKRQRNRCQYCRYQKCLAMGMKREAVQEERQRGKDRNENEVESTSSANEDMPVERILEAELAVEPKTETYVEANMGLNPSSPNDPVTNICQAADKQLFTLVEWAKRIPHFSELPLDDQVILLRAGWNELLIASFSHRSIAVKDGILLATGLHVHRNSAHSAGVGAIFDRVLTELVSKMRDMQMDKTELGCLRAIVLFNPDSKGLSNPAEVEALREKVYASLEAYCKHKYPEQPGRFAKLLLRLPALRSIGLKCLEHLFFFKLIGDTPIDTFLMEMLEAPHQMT
RARβ, sequence (P10826 whole entry, species assumed): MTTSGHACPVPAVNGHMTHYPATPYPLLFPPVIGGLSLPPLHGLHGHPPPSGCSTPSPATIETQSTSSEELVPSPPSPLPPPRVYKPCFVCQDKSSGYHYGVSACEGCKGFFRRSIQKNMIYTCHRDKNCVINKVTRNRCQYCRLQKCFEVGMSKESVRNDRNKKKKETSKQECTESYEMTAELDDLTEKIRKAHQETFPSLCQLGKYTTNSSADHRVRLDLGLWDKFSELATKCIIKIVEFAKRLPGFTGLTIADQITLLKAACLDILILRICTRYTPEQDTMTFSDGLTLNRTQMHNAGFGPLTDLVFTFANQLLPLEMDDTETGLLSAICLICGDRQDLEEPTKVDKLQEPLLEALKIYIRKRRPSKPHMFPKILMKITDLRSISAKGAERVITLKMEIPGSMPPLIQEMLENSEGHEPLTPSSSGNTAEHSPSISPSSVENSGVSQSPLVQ
human CAR, sequence (Q14994 whole entry): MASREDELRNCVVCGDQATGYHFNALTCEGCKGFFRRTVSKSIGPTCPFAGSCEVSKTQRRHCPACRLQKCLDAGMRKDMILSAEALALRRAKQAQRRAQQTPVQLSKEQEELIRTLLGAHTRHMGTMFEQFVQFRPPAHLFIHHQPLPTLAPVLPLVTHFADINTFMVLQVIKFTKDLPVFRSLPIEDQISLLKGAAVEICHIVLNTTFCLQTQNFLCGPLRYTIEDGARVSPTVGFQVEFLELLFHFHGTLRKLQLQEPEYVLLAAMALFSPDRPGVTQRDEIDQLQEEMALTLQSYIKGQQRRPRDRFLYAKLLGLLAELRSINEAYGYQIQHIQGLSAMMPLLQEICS
mouse LRH-1, sequence (P45448 whole entry): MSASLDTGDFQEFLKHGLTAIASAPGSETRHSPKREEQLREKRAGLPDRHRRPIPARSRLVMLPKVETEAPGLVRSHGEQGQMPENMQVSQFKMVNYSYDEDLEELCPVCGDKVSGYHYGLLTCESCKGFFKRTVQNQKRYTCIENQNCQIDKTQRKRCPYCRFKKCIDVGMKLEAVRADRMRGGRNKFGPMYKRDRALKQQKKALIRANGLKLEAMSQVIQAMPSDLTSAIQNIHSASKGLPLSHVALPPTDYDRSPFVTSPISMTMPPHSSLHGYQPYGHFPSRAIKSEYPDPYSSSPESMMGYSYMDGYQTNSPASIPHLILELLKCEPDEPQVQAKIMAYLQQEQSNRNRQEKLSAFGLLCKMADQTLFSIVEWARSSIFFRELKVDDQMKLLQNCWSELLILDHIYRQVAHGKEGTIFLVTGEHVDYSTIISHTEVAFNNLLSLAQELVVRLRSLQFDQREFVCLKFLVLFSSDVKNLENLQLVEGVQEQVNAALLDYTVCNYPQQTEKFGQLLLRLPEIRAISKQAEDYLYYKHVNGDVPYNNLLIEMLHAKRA
PPARδ, sequence (Q03181 whole entry, species assumed): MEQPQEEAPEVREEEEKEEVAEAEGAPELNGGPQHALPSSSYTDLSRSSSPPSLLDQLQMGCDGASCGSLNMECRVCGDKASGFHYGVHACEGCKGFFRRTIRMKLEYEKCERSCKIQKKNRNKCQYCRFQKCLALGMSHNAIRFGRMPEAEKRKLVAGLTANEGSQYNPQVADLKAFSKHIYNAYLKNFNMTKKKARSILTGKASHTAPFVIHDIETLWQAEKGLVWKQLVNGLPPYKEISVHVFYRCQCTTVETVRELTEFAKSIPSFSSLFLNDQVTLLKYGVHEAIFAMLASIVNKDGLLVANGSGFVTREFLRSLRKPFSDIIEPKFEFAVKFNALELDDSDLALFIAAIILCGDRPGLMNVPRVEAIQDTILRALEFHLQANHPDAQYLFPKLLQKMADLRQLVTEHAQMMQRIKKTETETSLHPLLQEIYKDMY
SF-1, sequence (Q13285 whole entry): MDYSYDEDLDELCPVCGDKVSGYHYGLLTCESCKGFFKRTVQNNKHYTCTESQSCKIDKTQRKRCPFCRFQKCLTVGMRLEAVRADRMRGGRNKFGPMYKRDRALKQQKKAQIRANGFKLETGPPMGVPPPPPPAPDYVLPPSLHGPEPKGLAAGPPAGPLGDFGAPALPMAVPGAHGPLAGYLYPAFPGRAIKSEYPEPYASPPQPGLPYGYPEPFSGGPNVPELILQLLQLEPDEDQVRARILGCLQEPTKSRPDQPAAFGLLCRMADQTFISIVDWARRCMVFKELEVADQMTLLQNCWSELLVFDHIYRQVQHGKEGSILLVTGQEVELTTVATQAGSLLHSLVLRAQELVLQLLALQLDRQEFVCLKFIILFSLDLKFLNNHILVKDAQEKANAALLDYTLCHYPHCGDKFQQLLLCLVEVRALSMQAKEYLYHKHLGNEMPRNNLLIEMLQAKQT

interaction of GST-LRH1 with SRC-3 (GST-hLRH-1 LBD / SRC-3; GST pulldown, 100 μM): further increased
increase of SRC-3 binding (GST-hLRH-1 LBD / SRC-3; PhosphorImager quantitation): approximately 3 fold
activation or inhibition of human CAR (human CAR): did not activate or inhibit
response with the Oct4 promoter (LRH-1 [1]; COS-1 cells, Oct4-PP Luc): induced a similar response
activation of Oct4-PPmut Luc (LRH-1 [1]; point mutations in the DR0 element): eliminates activation
LRH-1 transactivation (luciferase) (LRH-1 [2]; 100 μM): responses
pEC50 (LRH-1 [2]; reporter gene, dose response 1-250 μM, read-out: EC50 for activation of hLRH-1): ~4.22 and 4.24
activation or inhibition of RXRα (RXRα): did not activate or inhibit
activation or inhibition of PPARα (PPARα): did not activate or inhibit
activation or inhibition of TRβ (TRβ): did not activate or inhibit
activation or inhibition of LXRα (LXRα): did not activate or inhibit
activation or inhibition of FXR (FXR): did not activate or inhibit
increase of LRH-1 transactivation of the native mouse SHP promoter (LRH-1 [3]): approximately 2 fold
interaction of hLRH-1 LBD with SRC-3 RID [4]: stimulated
LRH-1 transactivation response (LRH-1 [5]): similar, but lesser responses
mouse LRH-1 response versus human LRH-1 (mouse LRH-1): essentially equivalent responses
activation or inhibition of ERα (ERα): did not activate or inhibit
activation or inhibition of human PXR (human PXR): did not activate or inhibit
activation or inhibition of mouse CAR (mouse CAR): did not activate or inhibit
activation or inhibition of PPARδ (PPARδ): did not activate or inhibit
SF-1 activation (SF-1): activate SF-1
activation or inhibition of RARβ (RARβ): did not activate or inhibit
expression of Cyp8B1 (LRH-1 target Cyp8B1; C3A/HepG2 cells or cells with non-target control siRNAs): modestly but significantly induced
Cyp8B1 response when LRH-1 expression is knocked down (LRH-1 target Cyp8B1; siRNA hLRH-1): lost
LRH-1 Luc luciferase activity (LRH-1 [7]): increased luciferase
activation or inhibition of PPARγ (PPARγ): did not activate or inhibit
Structure (SMILES): CCCCCCCCCCC(=O)OCC(COP(=O)([O-])OCC[N+](C)(C)C)OC(=O)CCCCCCCCCC (stereo not drawn) [DUPC, diundecanoylphosphatidylcholine]
liver bile acids (wild type male mice): somewhat lower
serum bile acid levels (wild type male mice): substantially elevated
serum free fatty acids (wild type male mice): decreased levels
serum glucose levels (wild type male mice): decreased serum glucose levels
total bile acid pool (wild type male mice): significant increase
hepatic gene expression response when LRH-1 gene removed by Cre (LRH-1 [6]): not observed; also recorded: completely absent
hepatic expression of Cyp7A1 [8]: significantly induced
hepatic expression of Cyp8B1 [8]: significantly induced
hepatic expression of SHP [8]: repressed
hepatic expression of mSR-BI [8]: significantly induced
